{"source": "paper PMC10330721", "about": "“Chemo-enzymatic synthesis and biological activity evaluation of propenylbenzene derivatives” (Frontiers in Microbiology, 2023)", "key": {"Dietzia sp. DSM44016": {"test_system": "Dietzia sp. DSM44016", "experiment": "Substrate toxicity in preparative biotransformation", "assay_type": "cell-based", "conditions": "preparative scale, 0.2 g substrate in 500 mL PCM medium", "method": "(§1) Five hundred millilitres of PCM medium was added into a 2,000-mL Erlenmeyer flask and sterilized at 121°C for 15 min. The medium was inoculated with 5 mL of pre-prepared bacterial cultures at OD600 = 0.3–0.5. The cultures were incubated at 22°C under shaking at 150 rpm for 3 days. Then, 0.2 g of diols 1b–5b dissolved in 5 mL of DMSO was added into the cultures. The samples were extracted after 3, 7, 11 days and evaluated by GC to estimate the progress of the biotransformation."}, "RBCs membrane": {"test_system": "RBCs membrane", "experiment": "Fluorescence spectroscopy of the RBCs membrane (DPH probe anisotropy)", "assay_type": "cell-based, human", "conditions": "for Fluorescence anisotropy of the DPH probe: membranes of RBCs, 37 °C", "method": "Using the DPH probe, the anisotropy values of cell membranes of RBCs modified with the test compounds were measured. RBCs for this analysis were prepared according to the method described in subsection 2.5.3. Then, the DPH probe was added to RBCs with a haematocrit of 0.2%. The final concentration of the probe in the sample was 1.3 μM. The mixture was incubated protected from light at 37°C for 30 min. Then, the compounds dissolved in ethanol were added. The compounds were tested at 20, 60, and 100 μM concentrations. Samples with compounds and control samples with alcohol of the appropriate concentration were incubated at 37°C for 1 h. Measurements in triplicate were made in quartz cuvettes using a CARY Eclipse fluorimeter (Varian, San Diego, CA, United States) at 37°C. The excitation wavelength for the DPH probe is λexc = 360 nm and the emission wavelength is λem = 426 nm."}, "HepG2 cells": {"test_system": "HepG2 cells", "experiment": "Resazurin-based viability assay", "assay_type": "cell-based, human", "conditions": "24 h, 1, 50 and 200 μg/mL", "method": "(§2) The human HepG2 and Caco-2 cell lines were obtained from the American Type Culture Collection (HB-8065™ and HTB-37™) and the MG-63 cell line was obtained from the European Collection of Authenticated Cell Cultures (Merck, Poznań, Poland). HepG2 cells were cultured in Dulbecco’s modified Eagle’s Medium - low glucose (Merck) supplemented with 10% foetal bovine serum (FBS) (Merck). Caco-2 cells were cultured in Dulbecco’s modified Eagle’s medium - high glucose (Merck) supplemented with 10% FBS, 2% HEPES buffer (Thermo Fisher Scientific, Warszawa, Poland), 1% Penicillin–Streptomycin-Amphotericin B Solution (100×, Merck), 1% MEM solution (100×, Thermo Fisher Scientific), and 1% Gentamycin Solution (10 mg/mL, Merck). MG-63 cells were cultured in Minimum Essential Medium (Merck) supplemented with 10% FBS. All cells were cultured in an atmosphere of 5% CO2 at 37°C.\n(§3) HepG2, Caco-2, and […] were seeded in 96-well plates at 20,000 cells per well, and MG-63 cells at 10,000 cells per well, as described previously ([Marycz et al., 2012]; [Kornicka et al., 2017]). The tested compounds were dissolved in ethanol at 10 mg/mL. The concentrations were then adjusted to 1, 50, and 200 μg/mL in culture medium. Four controls were prepared: no ethanol added, and 0.01, 0.5, and 2% EtOH. The cells were treated with the compounds for 24 h. Then, cell viability was evaluated using the resazurin-based assay kit (TOX8), as described previously ([Grzesiak et al., 2011]; [Marycz et al., 2018]). The culture medium was replaced with medium containing 10% resazurin dye. The cells were incubated at 37°C in an atmosphere of 5% CO2 for 2 h. Absorbance levels were measured spectrophotometrically (Epoch) at a wavelengths of 600 nm for resazurin and 690 nm as a reference."}, "Caco-2 cells": {"test_system": "Caco-2 cells", "experiment": "Resazurin-based viability assay", "assay_type": "cell-based, human", "conditions": "24 h, 1, 50 and 200 μg/mL", "method": "as §2, §3"}, "C. albicans ATTC 90028": {"test_system": "C. albicans ATTC 90028", "experiment": "Fungistatic activity assay, broth microdilution", "assay_type": "cell-based", "conditions": "Candida albicans; C. albicans ATTC90028, 24 h, 35°C, tested 10–250 μg/mL; read-out: MIC50", "method": "(§4) Fungistatic activity was determined using Candida albicans ATCC 90028 from the American Type Culture Collection (ATCC, Manassas, VA, United States), and clinical isolates, C. albicans 636/20, C. albicans 595/20, and C. albicans 38 obtained from Wrocław Medical University, Wrocław, Poland.\n(§5) All compounds were tested for biological activity against C. albicans ATTC 90028, C. albicans 636/20, C. albicans 595/20, and C. albicans 38 using the broth microdilution method. YPD medium (20 g glucose, 20 g Bacto Peptone, 10 g yeast extract, and 1 L of distilled water, pH 6.5) was used for the tests. The compound solutions were prepared in DMSO and diluted in YPD to obtain final concentrations in the range of 10–250 μg/mL. One hundred microlitres of each solution was pipetted into the wells of a 96-well microtiter plate. The inoculum was standardized to 0.5 McFarland standard and then diluted to obtain a final suspension with a cell density of 0.5–2.5 × 10^3 CFU/mL. The inoculum size was 100 μL. The positive control comprised DMSO added in the same concentration as the tested compounds in the inoculum, whereas the negative control consisted of DMSO diluted in the broth without the addition of inoculum. The microtiter plates were incubated in a Biosan PST-60 HL Plate Shaker-Thermostat (Riga, Latvia) at 35°C under shaking at 1,000 rpm for 24 h."}, "C. albicans 636/20": {"test_system": "C. albicans 636/20", "experiment": "Fungistatic activity assay, broth microdilution", "assay_type": "cell-based", "conditions": "Candida albicans; C. albicans 636/20, 24 h, 35°C, tested 10–250 μg/mL; read-out: MIC50", "method": "as §4, §5"}, "[1]": {"test_system": "R. erythropolis DSM44534 and R. erythropolis PCM2150", "experiment": "Substrate inhibition in preparative biotransformation", "assay_type": "cell-based, Rhodococcus erythropolis", "conditions": "preparative scale, high concentration of substrate (0.2 g in 500 mL PCM medium)", "method": "as §1"}, "[2]": {"experiment": "Haemolytic activity assay", "assay_type": "cell-based", "conditions": "human red blood cells (RBCs) from healthy donors, 37°C, read-out: Percentage of haemolysis", "method": "This test is based on comparison of the cytotoxicity of all tested compounds in human red blood cells (RBCs) with that in a control group. RBCs for this method were obtained from a blood center from examined and healthy donors. The compounds were tested at 10, 20, 40, 60, 80, and 100 μM concentrations. The control sample contained only ethanol in the same volume as the test samples. […] The samples were incubated at 37°C for 1 h. Then, the absorbance at 540 nm was measured using a UV–Vis spectrophotometer (Specord 40, Analytik Jena, Jena, Germany). The haemolytic activity of the compounds was determined as the ratio of the absorbance of haemoglobin in the test samples to that in completely haemolyzed cells multiplied by 100%."}, "[3]": {"experiment": "Free-radical scavenging assay (DPPH test)", "assay_type": "biochemical", "conditions": "DPPH 190 μM in methanol, 1 h, 25°C, absorbance 517 nm", "method": "The antiradical activity of all compounds was tested using the 2,2-diphenyl-1-picrylhydrazyl (DPPH) test according to a previously described method ([Herald et al., 2012]; [Dudek et al., 2022]). One litre of a fresh solution of 190 μM DPPH in pure methanol was prepared in a dark glass bottle. The solution was kept protected from light and used within a week. The tested compounds and ascorbic acid as a positive control were prepared at concentrations in the range of 5–100 μg/mL. Two hundred microlitres of the test compound dilutions was added to each well of a 96-well microtiter plate. Then, […] of a 190 μM solution of DPPH in methanol was added. DPPH was also added to the negative control, in which 200 μL of methanol was added instead of the test compounds. All samples were tested at least in triplicate. The microtiter plates were incubated in the Biosan PST-60 HL thermoshaker at 25°C under shaking at 1,000 rpm for 1 h. […] EC50 values were calculated using Quest Graph™ EC50 Calculator (AAT Bioquest, Inc.)."}, "[4]": {"test_system": "human hepatocellular carcinoma HepG2 cells", "parameters": "method as in Yoo et al., 2005; Song et al., 2014, 2020", "conditions": "ref Yoo et al., 2005; Song et al., 2014, 2020; cited from earlier work"}, "C. albicans 595/20": {"test_system": "C. albicans 595/20", "experiment": "Fungistatic activity assay, broth microdilution", "assay_type": "cell-based", "conditions": "Candida albicans; C. albicans 595/20, 24 h, 35°C, tested 10–250 μg/mL; read-out: MIC50", "method": "as §4, §5"}, "C. albicans strains": {"test_system": "C. albicans strains", "experiment": "Fungistatic activity assay, broth microdilution, values given over several strains", "assay_type": "cell-based, Candida albicans", "conditions": "Candida albicans; C. albicans 636/20, 595/20, 38 and ATTC90028; read-out: MIC50 (over all tested strains)", "method": "as §4, §5"}, "[5]": {"test_system": "human osteosarcoma MG63 cell line", "parameters": "method as in Pandit et al., 2020", "conditions": "ref Pandit et al., 2020; cited from earlier work"}}, "data": [{"smiles": "CC(O)C(O)c1ccccc1", "note": "(stereo not shown) [2b, 1-phenylpropane-1,2-diol]", "values": [{"measurement": "Toxicity of substrate to the strain (in words)", "setting": "Dietzia sp. DSM44016", "result": "toxic"}, {"measurement": "Change in DPH anisotropy / RBCs membrane fluidity (in words)", "setting": "RBCs membrane; RBCs, 20, 60 and 100 μM", "result": "increase in anisotropy"}, {"measurement": "Fluorescence anisotropy of the DPH probe", "setting": "RBCs membrane; 20 µM", "result": "0.286 ± 0.015"}, {"measurement": "Fluorescence anisotropy of the DPH probe", "setting": "RBCs membrane; 60 µM", "result": "0.277 ± 0.028"}, {"measurement": "Fluorescence anisotropy of the DPH probe", "setting": "RBCs membrane; 100 µM", "result": "0.278 ± 0.011"}, {"measurement": "Effect on HepG2 proliferation / viability (in words)", "setting": "HepG2 cells", "result": "highest inhibitory effect"}, {"measurement": "Effect on Caco-2 proliferation / viability (in words)", "setting": "Caco-2 cells", "result": "strongest inhibition"}, {"measurement": "MIC50", "setting": "C. albicans ATTC 90028", "result": 125, "unit": "µg/mL"}, {"measurement": "MIC50", "setting": "C. albicans 636/20", "result": 121, "unit": "µg/mL"}, {"measurement": "Inhibitory effect of substrate on the strains (in words)", "setting": "[1]", "result": "inhibitory effect"}, {"measurement": "hemolysis at 1 h, 10 µM", "setting": "[2]", "result": "1.04 ± 0.275", "unit": "%"}, {"measurement": "hemolysis at 1 h, 20 µM", "setting": "[2]", "result": "1.08 ± 0.107", "unit": "%"}, {"measurement": "hemolysis at 1 h, 40 µM", "setting": "[2]", "result": "1 ± 0.295", "unit": "%"}, {"measurement": "hemolysis at 1 h, 60 µM", "setting": "[2]", "result": "1.32 ± 0.255", "unit": "%"}, {"measurement": "hemolysis at 1 h, 80 µM", "setting": "[2]", "result": "1.79 ± 0.382", "unit": "%"}, {"measurement": "hemolysis at 1 h, 100 µM", "setting": "[2]", "result": "1.71 ± 0.054", "unit": "%"}]}, {"smiles": "C/C=C/c1ccc(OC)cc1", "note": "[3a, anethole]", "values": [{"measurement": "EC50 antiradical activity", "setting": "[3]", "result": 19.13, "unit": "µg/mL"}, {"measurement": "Effect on growth of HepG2 cells (in words)", "setting": "[4]", "result": "inhibited the growth"}, {"measurement": "Fluorescence anisotropy of the DPH probe", "setting": "RBCs membrane; 20 µM", "result": "0.263 ± 0.005"}, {"measurement": "Fluorescence anisotropy of the DPH probe", "setting": "RBCs membrane; 60 µM", "result": "0.261 ± 0.009"}, {"measurement": "Fluorescence anisotropy of the DPH probe", "setting": "RBCs membrane; 100 µM", "result": "0.259 ± 0.008"}, {"measurement": "MIC50", "setting": "C. albicans 595/20", "result": 62, "unit": "µg/mL"}, {"measurement": "MIC50", "setting": "C. albicans strains", "result": "62 to 100", "unit": "µg/mL"}, {"measurement": "Proliferation and apoptosis in MG63 cell line (in words)", "setting": "[5]", "result": "caused abrogation in proliferation and induces apoptosis"}, {"measurement": "hemolysis at 1 h, 10 µM", "setting": "[2]", "result": "1.36 ± 0.296", "unit": "%"}, {"measurement": "hemolysis at 1 h, 20 µM", "setting": "[2]", "result": "1.14 ± 0.159", "unit": "%"}, {"measurement": "hemolysis at 1 h, 40 µM", "setting": "[2]", "result": "2.23 ± 0.13", "unit": "%"}, {"measurement": "hemolysis at 1 h, 60 µM", "setting": "[2]", "result": "2.54 ± 0.267", "unit": "%"}, {"measurement": "hemolysis at 1 h, 80 µM", "setting": "[2]", "result": "2.2 ± 0.108", "unit": "%"}, {"measurement": "hemolysis at 1 h, 100 µM", "setting": "[2]", "result": "2.5 ± 0.39", "unit": "%"}]}, {"smiles": "O=C1O[C@H]([C@@H](O)CO)C(O)=C1O", "note": "[ascorbic acid, reference compound]", "values": [{"measurement": "EC50 antiradical activity", "setting": "[3]", "result": 15.21, "unit": "µg/mL"}]}]}
